Strand notation (5' to 3'): a small letter for the sugar, then the base; units joined by * are phosphorothioate-linked, units joined directly phosphodiester-linked; [ ] holds rarer units or linkages, { } end groups; capitals alone tell only the bases. e = 2'-O-(2-methoxyethyl) (MOE); k = constrained ethyl (cEt); [5mC] = 5-methylcytosine; d = 2'-deoxy (DNA)

Consider 26 substances from patent publication US11214803B2, “Modulators of YAP1 expression” (Ionis Pharmaceuticals, Inc., priority 2019, dated 2022).

In the data set the test system is Yap1 mRNA. Kind of data set: Dose-dependent inhibition of human Yap1 in SNU-449 cells (Example 9, RTS36584). The class given is cell-based. Conditions: free uptake; for % UTC (Yap1 mRNA): approximately 48 hours; for IC50: linear regression on a log/linear plot. A digest of the protocol: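 SNU-449 cells (10,000/well) took up modified oligonucleotides by free uptake at a range of doses for about 48 h. Yap1 mRNA was quantified with primer-probe set RTS36584, normalised to RIBOGREEN total RNA and expressed as % untreated control; IC50 from linear regression on log/linear plot.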

As for “1198492 (kG*k[5mC]*dT*dT*dT*dG*dG*dA*dA*dG*dA*eT*k[5mC]*eT*kG*eA; antisense) [compound 1198492]”, it took 100 nM to reach half-maximal inhibition (IC50). The “% UTC (Yap1 mRNA)” value (31.3 nM) is on record as 67 % UTC. Also, the “% UTC (Yap1 mRNA)” value (125.0 nM) amounted to 39 % UTC. Besides, the “% UTC (Yap1 mRNA)” value (500.0 nM) is reported as 19 % UTC. Besides, the “% UTC (Yap1 mRNA)” value (2000.00 nM) was determined as 10 % UTC.
The corresponding values for “1198494 (kG*kT*dG*d[5mC]*dT*dT*dT*dG*dG*dA*dA*eG*kA*eT*k[5mC]*eT; antisense) [compound 1198494]” are 100 nM, 59 % UTC, 37 % UTC, 24 % UTC and 13 % UTC.
With “1198499 (kT*kT*dT*dA*dG*dG*dA*dT*dG*d[5mC]*dA*eT*kG*eG*kT*eT) [compound 1198499]”, the midpoint of inhibition, the IC50, lay at 200 nM. In addition, the “% UTC (Yap1 mRNA)” value (31.3 nM) stood at 89 % UTC. For the same substance, the “% UTC (Yap1 mRNA)” value (125.0 nM) stood at 42 % UTC. In addition, the “% UTC (Yap1 mRNA)” value (500.0 nM) is recorded as 30 % UTC. Further, where the note is “2000.00 nM”, the “% UTC (Yap1 mRNA)” value worked out at 12 % UTC.
The corresponding values for “1198500 (kA*kT*dT*dT*dA*dG*dG*dA*dT*dG*d[5mC]*eA*kT*eG*kG*eT; antisense) [compound 1198500]” are 200 nM, 72 % UTC, 51 % UTC, 34 % UTC and 15 % UTC.
In the same order, the values of “1198502 (kA*kG*dA*dT*dT*dT*dA*dG*dG*dA*dT*eG*k[5mC]*eA*kT*eG; antisense) [compound 1198502]” are 200 nM, 76 % UTC, 50 % UTC, 29 % UTC and 15 % UTC.
Regarding “1198504 (kT*k[5mC]*dA*dG*dA*dT*dT*dT*dA*dG*dG*eA*kT*eG*k[5mC]*eA; antisense) [compound 1198504]”, the IC50 stood at 100 nM. Further, the “% UTC (Yap1 mRNA)” value (31.3 nM) worked out at 77 % UTC. The “% UTC (Yap1 mRNA)” value (125.0 nM) came out at 46 % UTC. Further, the “% UTC (Yap1 mRNA)” value (500.0 nM) was 27 % UTC. Also, the “% UTC (Yap1 mRNA)” value (2000.00 nM) amounted to 24 % UTC.
In the same order, the values of “1198507 (kT*kT*dA*dT*dA*dT*dG*dG*dT*dT*dT*eT*kG*eT*kG*eT; antisense) [compound 1198507]” are 200 nM, 83 % UTC, 57 % UTC, 29 % UTC and 13 % UTC.
With “1198510 (k[5mC]*kT*d[5mC]*dT*dT*dA*dT*dA*dT*dG*dG*eT*kT*eT*kT*eG; antisense) [compound 1198510]”, the 50% inhibitory concentration (IC50) is 100 nM. Under “31.3 nM”, the “% UTC (Yap1 mRNA)” value came out at 71 % UTC. For the same substance, the “% UTC (Yap1 mRNA)” value (125.0 nM) is listed as 44 % UTC. In addition, the “% UTC (Yap1 mRNA)” value (500.0 nM) was determined as 18 % UTC. The “% UTC (Yap1 mRNA)” value (2000.00 nM) was 6 % UTC.
As to “1198524 (kT*kG*dT*dA*dT*dG*dT*d[5mC]*dA*dG*dA*eA*kG*eA*kG*eT; antisense) [compound 1198524]”, the IC50 was less than 30 nM. In addition, the “% UTC (Yap1 mRNA)” value (31.3 nM) came to 50 % UTC. Moreover, for the setting “125.0 nM”, the “% UTC (Yap1 mRNA)” value stood at 32 % UTC. Further, the “% UTC (Yap1 mRNA)” value (500.0 nM) was 9 % UTC. Further, where the note is “2000.00 nM”, the “% UTC (Yap1 mRNA)” value is recorded as 3 % UTC.
The corresponding values for “1198525 (kA*kG*dT*dG*dT*dA*dT*dG*dT*d[5mC]*dA*eG*kA*eA*kG*eA) [compound 1198525]” are 40 nM, 62 % UTC, 26 % UTC, 8 % UTC and 1 % UTC.
In the same order, the values of “1198526 (kA*kA*dG*dT*dG*dT*dA*dT*dG*dT*d[5mC]*eA*kG*eA*kA*eG; antisense) [compound 1198526]” are 40 nM, 61 % UTC, 30 % UTC, 8 % UTC and 2 % UTC.
The corresponding values for “1198527 (kA*kA*dA*dG*dT*dG*dT*dA*dT*dG*dT*e[5mC]*kA*eG*kA*eA; antisense) [compound 1198527]” are 100 nM, 63 % UTC, 35 % UTC, 12 % UTC and 3 % UTC.
“1198528 (kT*kA*dA*dA*dG*dT*dG*dT*dA*dT*dG*eT*k[5mC]*eA*kG*eA; antisense) [compound 1198528]” showed a 50% inhibitory concentration (IC50) of 200 nM. The “% UTC (Yap1 mRNA)” value (31.3 nM) was found to be 87 % UTC. Moreover, the “% UTC (Yap1 mRNA)” value (125.0 nM) was 54 % UTC. The “% UTC (Yap1 mRNA)” value (500.0 nM) came out at 30 % UTC. Moreover, the “% UTC (Yap1 mRNA)” value (2000.00 nM) amounted to 11 % UTC.
Substance “1198529 (kT*kT*dA*dA*dA*dG*dT*dG*dT*dA*dT*eG*kT*e[5mC]*kA*eG; antisense) [compound 1198529]” showed a concentration for half-maximal inhibition (IC50) of 300 nM. In addition, the “% UTC (Yap1 mRNA)” value (31.3 nM) is on record as 86 % UTC. The “% UTC (Yap1 mRNA)” value (125.0 nM) came to 69 % UTC. In addition, where the note is “500.0 nM”, the “% UTC (Yap1 mRNA)” value is 37 % UTC. Besides, the “% UTC (Yap1 mRNA)” value (2000.00 nM) came to 16 % UTC.
In the same order, the values of “1198543 (kA*kT*kT*dG*dT*d[5mC]*dT*d[5mC]*dA*dT*dG*d[5mC]*k[5mC]*kT*kT*eA; antisense) [compound 1198543]” are 100 nM, 75 % UTC, 42 % UTC, 19 % UTC and 6 % UTC.
For the substance “1198546 (kG*kA*kA*dA*dT*dT*dG*dT*d[5mC]*dT*d[5mC]*dA*kT*kG*k[5mC]*e[5mC]) [compound 1198546]”, inhibition was half-maximal at 100 nM (IC50). Moreover, the “% UTC (Yap1 mRNA)” value (31.3 nM) was determined as 70 % UTC. Moreover, the “% UTC (Yap1 mRNA)” value (125.0 nM) is on record as 42 % UTC. Besides, the “% UTC (Yap1 mRNA)” value (500.0 nM) is listed as 18 % UTC. Moreover, the “% UTC (Yap1 mRNA)” value (2000.00 nM) is listed as 6 % UTC.
In turn, “1198550 (kA*kT*kA*dT*dG*dG*dA*dA*dA*dT*dT*dG*kT*k[5mC]*kT*e[5mC]) [compound 1198550]” gave a half-maximal inhibitory concentration (IC50) of 200 nM. For the same substance, under “31.3 nM”, the “% UTC (Yap1 mRNA)” value is reported as 73 % UTC. In addition, the “% UTC (Yap1 mRNA)” value (125.0 nM) was found to be 56 % UTC. For the same substance, the “% UTC (Yap1 mRNA)” value (500.0 nM) amounted to 30 % UTC. In addition, the “% UTC (Yap1 mRNA)” value (2000.00 nM) was 13 % UTC.
As for “1198552 (kA*kG*kA*dG*dT*dA*dT*dG*dT*dG*dG*d[5mC]*kA*kA*kT*eA; antisense) [compound 1198552]”, the IC50 is 100 nM. In addition, under “31.3 nM”, the “% UTC (Yap1 mRNA)” value came to 72 % UTC. Moreover, under “125.0 nM”, the “% UTC (Yap1 mRNA)” value amounted to 46 % UTC. In addition, the “% UTC (Yap1 mRNA)” value (500.0 nM) came out at 23 % UTC. The “% UTC (Yap1 mRNA)” value (2000.00 nM) is on record as 9 % UTC.
On to “1198553 (kT*kA*kG*dA*dG*dT*dA*dT*dG*dT*dG*dG*k[5mC]*kA*kA*eT; antisense) [compound 1198553]”, for which inhibition was half-maximal at 100 nM (IC50). Besides, the “% UTC (Yap1 mRNA)” value (31.3 nM) came to 65 % UTC. In addition, the “% UTC (Yap1 mRNA)” value (125.0 nM) is on record as 38 % UTC. In addition, the “% UTC (Yap1 mRNA)” value (500.0 nM) was found to be 19 % UTC. Also, under “2000.00 nM”, the “% UTC (Yap1 mRNA)” value was 6 % UTC.
As for “1198554 (kT*kT*kA*dG*dA*dG*dT*dA*dT*dG*dT*dG*kG*k[5mC]*kA*eA; antisense) [compound 1198554]”, 100 nM corresponded to half-maximal inhibition (IC50). Further, the “% UTC (Yap1 mRNA)” value (31.3 nM) came out at 72 % UTC. Under “125.0 nM”, the “% UTC (Yap1 mRNA)” value worked out at 46 % UTC. Besides, under “500.0 nM”, the “% UTC (Yap1 mRNA)” value is on record as 22 % UTC. Further, the “% UTC (Yap1 mRNA)” value (2000.00 nM) was determined as 8 % UTC.
Regarding “1198555 (kA*kT*kT*dA*dG*dA*dG*dT*dA*dT*dG*dT*kG*kG*k[5mC]*eA; antisense) [compound 1198555]”, the half-inhibitory concentration (IC50) was found to be 100 nM. The “% UTC (Yap1 mRNA)” value (31.3 nM) was 73 % UTC. The “% UTC (Yap1 mRNA)” value (125.0 nM) is on record as 40 % UTC. Further, the “% UTC (Yap1 mRNA)” value (500.0 nM) was found to be 19 % UTC. Moreover, the “% UTC (Yap1 mRNA)” value (2000.00 nM) is 9 % UTC.
The corresponding values for “1198557 (kA*kT*kA*dT*dT*dA*dG*dA*dG*dT*dA*dT*kG*kT*kG*eG; antisense) [compound 1198557]” are 200 nM, 81 % UTC, 52 % UTC, 26 % UTC and 11 % UTC.
The corresponding values for “1198569 (CACTTTTACATTAGGA; modified gapmer, chemistry not fully specified) [compound 1198569]” are 100 nM, 71 % UTC, 45 % UTC, 22 % UTC and 14 % UTC.
The corresponding values for “1198570 (kG*k[5mC]*kA*d[5mC]*dT*dT*dT*dT*dA*d[5mC]*dA*dT*kT*kA*kG*eG) [compound 1198570]” are 40 nM, 58 % UTC, 33 % UTC, 16 % UTC and 9 % UTC.
“1198578 (GCTTTGGAAGATCTGA; modified gapmer, chemistry not fully specified) [compound 1198578]” displayed a half-inhibitory concentration (IC50) of 100 nM. Further, for the setting “31.3 nM”, the “% UTC (Yap1 mRNA)” value is on record as 73 % UTC. For the same substance, the “% UTC (Yap1 mRNA)” value (125.0 nM) came out at 45 % UTC. The “% UTC (Yap1 mRNA)” value (500.0 nM) was 25 % UTC. Moreover, the “% UTC (Yap1 mRNA)” value (2000.00 nM) is 12 % UTC.
The corresponding values for “1198596 (k[5mC]*kT*k[5mC]*dT*dT*dA*dT*dA*dT*dG*dG*dT*kT*kT*kT*eG; antisense) [compound 1198596]” are 100 nM, 73 % UTC, 40 % UTC, 14 % UTC and 4 % UTC.

By IC50 is commonly meant the concentration that inhibits the measured activity by half.
